According to patent US20240199605A1, “SMALL MOLECULAR INHIBITORS OF NF-kB INDUCING KINASE” (Janssen Pharmaceutica NV, priority 2019, published 2024):
Like-named read-outs stand apart in the source and are kept apart here.

Assays:
[1] = molecular target: recombinant human NF-kappaB-inducing kinase (NIK/MAP3K14) (Homo sapiens (Human), UniProt Q99558); experiment: Inhibition of auto-phosphorylation of recombinant human NIK/MAP3K14 (AlphaScreen); type: biochemical; conditions: NIK auto-phosphorylation, 5 μM ATP, 1 nM NIK, 2 h at 25° C.; average of values
How it was run: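 AlphaScreen read-out (anti-phospho-IKK Ser176/180 antibody, Protein A acceptor and glutathione donor beads) of NIK auto-phosphorylation. Reaction: 1 nM enzyme, 5 μM ATP, Tris pH 7.5 buffer with Mg2+ and vanadate, 2 h at 25° C., final DMSO 0.7%. IC50 came from a sigmoidal curve fit.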

[2] = test system: p-IKKα levels in L363 (NIK translocated multiple myeloma) cells; experiment: Effect of compounds on p-IKKα levels in L363 cells (AlphaLISA SureFire Ultra); type: cell-based, human; conditions: BAFF stimulated, MG132, 6 h, average of values, read-out: Assay 2 IC50
How it was run: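 Inhibition of p-IKKα (Ser176/180) read by AlphaLISA after 6 h, 37 °C compound exposure (11-point 1:3 series, 0.3% DMSO) of L363 cells pre-incubated overnight ± 250 ng/ml BAFF and plated ± BAFF ± 10 μM MG132. Normalised to BAFF/MG132/DMSO and unstimulated controls; IC50 by sigmoidal fitting, duplicates.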

Chain of recombinant human NF-kappaB-inducing kinase (NIK/MAP3K14) (Q99558 whole entry): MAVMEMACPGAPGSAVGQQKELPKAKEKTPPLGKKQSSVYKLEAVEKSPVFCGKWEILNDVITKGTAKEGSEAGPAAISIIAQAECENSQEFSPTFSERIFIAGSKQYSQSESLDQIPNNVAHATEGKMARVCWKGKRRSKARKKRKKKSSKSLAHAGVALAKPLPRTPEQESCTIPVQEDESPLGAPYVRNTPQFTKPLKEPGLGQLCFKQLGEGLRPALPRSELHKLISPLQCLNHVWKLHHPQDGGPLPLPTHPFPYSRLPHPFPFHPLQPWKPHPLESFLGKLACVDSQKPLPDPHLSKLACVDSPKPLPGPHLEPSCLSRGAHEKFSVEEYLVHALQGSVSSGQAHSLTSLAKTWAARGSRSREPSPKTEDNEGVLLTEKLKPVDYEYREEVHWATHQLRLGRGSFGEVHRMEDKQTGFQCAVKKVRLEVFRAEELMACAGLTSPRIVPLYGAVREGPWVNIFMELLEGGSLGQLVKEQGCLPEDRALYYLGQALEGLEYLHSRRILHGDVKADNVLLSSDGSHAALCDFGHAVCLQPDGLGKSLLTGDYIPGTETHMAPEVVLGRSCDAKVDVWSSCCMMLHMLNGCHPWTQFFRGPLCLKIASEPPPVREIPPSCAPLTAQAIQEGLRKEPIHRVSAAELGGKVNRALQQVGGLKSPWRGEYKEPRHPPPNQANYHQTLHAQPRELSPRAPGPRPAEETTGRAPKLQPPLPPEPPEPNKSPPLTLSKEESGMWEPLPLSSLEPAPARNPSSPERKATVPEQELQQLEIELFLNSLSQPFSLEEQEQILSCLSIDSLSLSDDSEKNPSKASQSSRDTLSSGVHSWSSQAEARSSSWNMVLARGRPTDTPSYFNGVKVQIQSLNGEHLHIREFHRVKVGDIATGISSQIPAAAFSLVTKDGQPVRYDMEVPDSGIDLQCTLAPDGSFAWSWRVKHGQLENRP

IC50 [1] [nM]	IC50 ([2]; Homo sapiens, L-363, 6 h) [nM]	IC50 [2] [nM]	Structure (SMILES)
9.2	240	–	Cc1nc(N)c2nc(-c3cc(C#C[C@]4(O)CCN(C)C4=O)ccc3OC(F)(F)F)ccc2n1 [Example 237, (R)-3-((3-(4-Amino-2-methylpyrido[3,2-d]pyrimidin-6-yl)-4-(trifluoromethoxy)phenyl)ethynyl)-3-hydroxy-1-methylpyrrolidin-2-one]
630	> 5000	–	CN1CC[C@@](O)(C#Cc2cccc(-c3ccc4nc[nH]c(=O)c4n3)c2)C1=O [Example 221, (R)-6-(3-((3-Hydroxy-1-methyl-2-oxopyrrolidin-3-yl)ethynyl)phenyl)pyrido[3,2-d]pyrimidin-4(3H)-one]
110	> 5000	–	Cc1nc(N)c2nc(-c3cccc(C#C[C@](C)(O)c4cscn4)c3)ccc2n1 [Example 209, (S)-4-[3-(4-Amino-2-methyl-pyrido[3,2-d]pyrimidin-6-yl)phenyl]-2-thiazol-4-yl-but-3-yn-2-ol]
0.6	15	–	CN1CC[C@@](O)(C#Cc2cccc(-c3cc(OC4CC4)c4ncnc(N)c4n3)c2)C1=O [Example 304, (R)-3-[2-[3-[4-Amino-8-(cyclopropoxy)pyrido[3,2-d]pyrimidin-6-yl]phenyl]ethynyl]-3-hydroxy-1-methyl-pyrrolidin-2-one]
0.7	13	–	CN1CC[C@@](O)(C#Cc2cccc(-c3cc(-c4ccccc4)c4ncnc(N)c4n3)c2)C1=O [Example 310, (R)-3-((3-(4-Amino-8-phenylpyrido[3,2-d]pyrimidin-6-yl)phenyl)ethynyl)-3-hydroxy-1-methylpyrrolidin-2-one]
1.9	26	–	CN1CC[C@@](O)(C#Cc2cccc(-c3cc(OCCC(F)(F)F)c4ncnc(N)c4n3)c2)C1=O [Example 306, (R)-3-[2-[3-[4-Amino-8-(3,3,3-trifluoropropoxy)pyrido[3,2-d]pyrimidin-6-yl]phenyl]ethynyl]-3-hydroxy-1-methyl-pyrrolidin-2-one]
1.6	40	–	CN1CC[C@@](O)(C#Cc2cccc(-c3cc(N4CC5(C4)CC5(F)F)c4ncnc(N)c4n3)c2)C1=O [Example 307, (R)-3-[2-[3-[4-Amino-8-(2,2-difluoro-5-azaspiro[2.3]hexan-5-yl)pyrido[3,2-d]pyrimidin-6-yl]phenyl]ethynyl]-3-hydroxy-1-methyl-pyrrolidin-2-one]
≤ 0.5	12	–	[2H]C([2H])([2H])N1CC[C@@](O)(C#Cc2cccc(-c3ccc4nc(CF)nc(N)c4n3)c2)C1=O [Example 208, (R)-3-((3-(4-Amino-2-(fluoromethyl)pyrido[3,2-d]pyrimidin-6-yl)phenyl)ethynyl)-3-hydroxy-1-(methyl-d3)pyrrolidin-2-one]
350	4150	–	CN1CC[C@](O)(C#Cc2cccc(-c3cc(C4CCOCC4)c4ncnc(N)c4n3)c2)C1=O [Example 256, (S)-3-((3-(4-Amino-8-(tetrahydro-2H-pyran-4-yl)pyrido[3,2-d]pyrimidin-6-yl)phenyl)ethynyl)-3-hydroxy-1-methylpyrrolidin-2-one]
340	> 5000	–	CN1CC[C@](O)(C#Cc2cccc(-c3ccc4ncnc(N5CCC5)c4n3)c2)C1=O [Example 231, (S)-3-((3-(4-(Azetidin-1-yl)pyrido[3,2-d]pyrimidin-6-yl)phenyl)ethynyl)-3-hydroxy-1-methylpyrrolidin-2-one]
2.2	> 5000	–	CN1CC[C@@](O)(C#Cc2cccc(-c3ccc4nc(O)nc(N)c4n3)c2)C1=O [Example 211, (R)-3-((3-(4-Amino-2-hydroxypyrido[3,2-d]pyrimidin-6-yl)phenyl)ethynyl)-3-hydroxy-1-methylpyrrolidin-2-one]
3.1	18	–	CN1CC[C@@](O)(C#Cc2cccc(-c3cc(N(C)C)c4ncnc(N)c4n3)c2)C1=O [Example 295, (R)-3-[2-[3-[4-Amino-8-(dimethylamino)pyrido[3,2-d]pyrimidin-6-yl]phenyl]ethynyl]-3-hydroxy-1-methyl-pyrrolidin-2-one]
18	1080	–	Cc1nc(N)c2nc(-c3cccc(C#C[C@@](C)(O)c4nnc(C)o4)c3)ccc2n1 [Example 213, (R)-4-(3-(4-Amino-2-methylpyrido[3,2-d]pyrimidin-6-yl)phenyl)-2-(5-methyl-1,3,4-oxadiazol-2-yl)but-3-yn-2-ol]

The next lines start with the compound.

Structure (SMILES)	IC50 [1] [nM]	IC50 ([2]; Homo sapiens, L-363, 6 h) [nM]	IC50 [2] [nM]
Cc1nc(N)c2nc(-c3cccc(C#C[C@@](C)(O)c4cnc(C)s4)c3)ccc2n1 [Example 158, (R)-4-(3-(4-Amino-2-methylpyrido[3,2-d]pyrimidin-6-yl)phenyl)-2-(2-methylthiazol-5-yl)but-3-yn-2-ol]	1930	> 5000	–
Cc1cnc(N)c2nc(-c3cccc(C#C[C@]4(O)CCc5cccnc54)c3)ncc12 [Example 62, (R)-7-((3-(8-Amino-5-methylpyrido[3,4-d]pyrimidin-2-yl)phenyl)ethynyl)-6,7-dihydro-5H-cyclopenta[b]pyridin-7-ol]	≤ 0.5	22	–
Cc1nnc([C@](C)(O)C#Cc2cccc(-c3ccc4ncnc(N)c4n3)c2)o1 [Example 97, (R)-4-(3-(4-Aminopyrido[3,2-d]pyrimidin-6-yl)phenyl)-2-(5-methyl-1,3,4-oxadiazol-2-yl)but-3-yn-2-ol]	0.8	46	–
Cc1csc([C@](C)(O)C#Cc2cccc(-c3ccc4nc(C)nc(N)c4n3)c2)n1 [Example 180, (R)-4-(3-(4-Amino-2-methylpyrido[3,2-d]pyrimidin-6-yl)phenyl)-2-(4-methylthiazol-2-yl)but-3-yn-2-ol]	410	> 5000	–
Cc1nc(N)c2nc(-c3cccc(C#C[C@@]4(O)CCN(C)C4=O)c3)ccc2n1 [Example 7, (S)-3-((3-(4-Amino-2-methylpyrido[3,2-d]pyrimidin-6-yl)phenyl)ethynyl)-3-hydroxy-1-methylpyrrolidin-2-one]	170	2300	–
C[C@@](O)(C#Cc1cccc(-c2ccc3ccnc(N)c3n2)c1)c1nccs1 [Example 90, (R)-4-[3-(8-Amino-1,7-naphthyridin-2-yl)phenyl]-2-thiazol-2-yl-but-3-yn-2-ol]	≤ 0.5	70	–
CN1CC[C@@](O)(C#Cc2cccc(-c3ncc4c(-c5cn[nH]c5)cnc(N)c4n3)c2)C1=O [Example 124, (R)-3-[2-[3-[8-Amino-5-(1H-pyrazol-4-yl)pyrido[3,4-d]pyrimidin-2-yl]phenyl]ethynyl]-3-hydroxy-1-methyl-pyrrolidin-2-one]	≤ 0.5	7.7	–
Cc1ccc(C#C[C@]2(O)CCN(C)C2=O)cc1-c1ccc2ncnc(N)c2n1 [Example 3, (R)-3-[2-[3-(4-Aminopyrido[3,2-d]pyrimidin-6-yl)-4-methyl-phenyl]ethynyl]-3-hydroxy-1-methyl-pyrrolidin-2-one]	0.7	28	–
Cc1ccc(C#C[C@]2(O)CCn3ccnc32)cc1-c1ccc2ccnc(N)c2c1 [Example 81, (R)-7-[2-[3-(1-Amino-7-isoquinolyl)-4-methyl-phenyl]ethynyl]-5,6-dihydropyrrolo[1,2-a]imidazol-7-ol]	11	1980	–
CO[C@@]1(C#Cc2cccc(-c3ccc4ncnc(N)c4n3)c2)CCN(C)C1=O [Example 207, (R)-3-((3-(4-Aminopyrido[3,2-d]pyrimidin-6-yl)phenyl)ethynyl)-3-methoxy-1-methylpyrrolidin-2-one]	180	> 5000	–
[2H]C([2H])([2H])N1CC[C@@](O)(C#Cc2ccc(C)c(-c3ccc4ccnc(N)c4c3)c2)C1=O [Example 70, (R)-3-[2-[3-(1-Amino-7-isoquinolyl)-4-methyl-phenyl]ethynyl]-3-hydroxy-1-(trideuteriomethyl)pyrrolidin-2-one]	26	–	2210
Cc1ccc(C#C[C@]2(O)CCN(C)C2=O)cc1-c1ncc2ccnc(N)c2n1 [Example 43, (R)-3-((3-(8-Aminopyrido[3,4-d]pyrimidin-2-yl)-4-methylphenyl)ethynyl)-3-hydroxy-1-methylpyrrolidin-2-one]	0.9	60	–
Cc1nc(N)c2nc(-c3cccc(C#C[C@]4(O)CCN(C)C4=O)c3)ncc2n1 [Example 14, (R)-3-((3-(8-Amino-6-methylpyrimido[5,4-d]pyrimidin-2-yl)phenyl)ethynyl)-3-hydroxy-1-methylpyrrolidin-2-one]	≤ 0.5	18	–
CN1CC[C@@](O)(C#Cc2cccc(-c3ncc4ccnc(N)c4n3)c2)C1=O [Example 1, (R)-3-[2-[3-(8-Aminopyrido[3,4-d]pyrimidin-2-yl)phenyl]ethynyl]-3-hydroxy-1-methyl-pyrrolidin-2-one]	≤ 0.5	3.7	–
CN1CC[C@@](O)(C#Cc2ccc(OC(F)(F)F)c(-c3ncc4ccnc(N)c4n3)c2)C1=O [Example 56, (R)-3-((3-(8-Aminopyrido[3,4-d]pyrimidin-2-yl)-4-(trifluoromethoxy)phenyl)ethynyl)-3-hydroxy-1-methylpyrrolidin-2-one]	2	36	–
CN1CC[C@@](O)(C#Cc2cccc(-c3cc4c(N)ncnc4cn3)c2)C1=O [Example 111, (R)-3-[2-[3-(4-Aminopyrido[3,4-d]pyrimidin-6-yl)phenyl]ethynyl]-3-hydroxy-1-methyl-pyrrolidin-2-one]	1.2	160	–
